Source: the supplement of paper PMC10790783
Where a name gives a salt, the structure may show the parent alone.

Tested on: MRC5-hT fibroblasts expressing HCMV UL38 (glucose-free medium)
Assay: rescue of cell number (AUC of dose-response) relative to untreated glucose-free control; higher = stronger protection from glucose-starvation-induced cell death
Conditions: glucose: 0 (glucose-free DMEM); 96 h; dose range 0.001-20, 10-point curve µM
Protocol: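 MRC5-hT fibroblasts stably expressing HCMV UL38 were seeded in 384-well plates, serum-starved for 24 h, switched to glucose-free DMEM, and pin-transferred with a metabolism-focused compound library as 10-point dose curves (1 nM to 20 µM; n=2). Nuclei were counted by Hoechst imaging 96 h after glucose withdrawal.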

Row | Structure (SMILES) | rescue of cell number [%]
1 | OCCN1C[C@H](O)[C@@H](O)[C@H](O)[C@H]1CO [Miglitol] | -37.1
2 | C[C@@H]1CC[C@H]2[C@@H](C)C(=O)O[C@@H]3O[C@@]4(C)CC[C@@H]1[C@]32OO4 [Artemisinin] | 15.9
3 | O=C(O)C(=O)CBr [Bromopyruvic_acid] | 134
4 | N=C(N)NC(=N)NCCc1ccccc1 [Phenformin] | -11.3
5 | O=C(Nc1cccc(C(F)(F)F)c1)Nc1cc(S(=O)(=O)NC2CC2)ccc1-c1ccsc1 [AGI_6780] | -23.4
6 | OC[C@H]1O[C@@H](c2ccc(F)c(Cc3cc4ccccc4s3)c2)[C@H](O)[C@@H](O)[C@@H]1O [Ipragliflozin] | -33.8
7 | O=c1[nH]cc(F)c(=O)[nH]1 [5_Fluorouracil] | -15.2
8 | COc1ccc(C(CN(C)C)C2(O)CCCCC2)cc1 (stereo unspecified) [Venlafaxine] | 6.28
9 | COc1cc(O)c2c(c1)C(=O)c1cc(C)cc(O)c1C2=O [Physcion] | -37.6
10 | COc1ccccc1OCC(O)CN1CCN(CC(=O)Nc2c(C)cccc2C)CC1 (stereo unspecified) [Ranolazine] | -35.4
11 | CCc1c(-c2ccccc2)c(-c2ccccc2)nn1-c1ccccc1-c1cccc(OCC(=O)O)c1 | -14.6
12 | NC(=O)c1ccc(N)nc1 [6_Aminonicotinamide] | 32.1
13 | CN(Cc1ccc(C(C)(C)C)cc1)Cc1cccc2ccccc12 [Butenafine] | 14.4
14 | CC(=O)c1ccc2c(c1)Nc1ccccc1S2 [ML_171] | 23
15 | CCOc1ccccc1-n1c(C(C)N2CCN(C(=O)COc3ccc(Cl)cc3)CC2)nc2ccccc2c1=O (stereo unspecified) [Erastin] | 68.6
16 | CCc1ccc(CCOc2ccc(CC3SC(=O)NC3=O)cc2)nc1 (stereo unspecified) [Pioglitazone] | 69
17 | CCCCCCCC/C=C\CCCCCCCC(=O)NCCO [Oleylethanolamide] | -13.2
18 | Clc1ccc(C(c2ccccc2Cl)C(Cl)Cl)cc1 (stereo unspecified) [Mitotane] | 9.97
19 | COc1cc2c(cc1O)CC[C@@H]1[C@@H]2CC[C@]2(C)[C@@H](O)CC[C@@H]12 [2_Methoxyestradiol] | 22.8
20 | CCc1nc(N)nc(N)c1-c1ccc(Cl)cc1 [Pyrimethamine] | -35.1
21 | CCOC(=O)[C@@H](N)CCC(=O)N[C@@H](CSCc1ccccc1)C(=O)N[C@@H](C(=O)OCC)c1ccccc1 [Ezatiostat] | -9.45

Row | Structure (SMILES) | rescue of cell number [%]
22 | S=c1[nH]cnc2nc[nH]c12 [Mercaptopurine] | -32.1
23 | COc1cccc2c(NCc3ccccc3)nc(-n3c(N)nc4ccccc43)nc12 [ML_240] | 50.1
24 | COc1cc(O)c(CC=C(C)C)c(O)c1C(=O)/C=C/c1ccc(O)cc1 [Xanthohumol] | 15.1
25 | CCCCN1C[C@H](O)[C@@H](O)[C@H](O)[C@H]1CO [Miglustat] | 5.72
26 | CC[C@]1(O)C[C@H]2CN(CCc3c([nH]c4ccccc34)[C@@](C(=O)OC)(c3cc4c(cc3OC)N(C=O)[C@H]3[C@@](O)(C(=O)OC)[C@H](OC(C)=O)[C@]5(CC)C=CCN6CC[C@]43[C@@H]65)C2)C1 [Vincristine_sulfate] | 29.6
27 | CCc1ccc(Cc2ccc3c(c2)[C@]2(OC3)O[C@H](CO)[C@@H](O)[C@H](O)[C@H]2O)cc1 [Tofogliflozin hydrate] | -27.9
28 | Cc1cccc(CN2CCN(C(c3ccccc3)c3ccc(Cl)cc3)CC2)c1 (stereo unspecified) [Meclizine] | 31.4
29 | O=C(O)c1nn(Cc2ccc(Cl)cc2Cl)c2ccccc12 [Lonidamine] | -29
30 | CC(=O)O[C@H]1C(=O)[C@@]2(C)[C@H]([C@H](OC(=O)c3ccccc3)[C@]3(O)C[C@H](OC(=O)[C@H](O)[C@@H](NC(=O)c4ccccc4)c4ccccc4)C(C)=C1C3(C)C)[C@]1(OC(C)=O)CO[C@@H]1C[C@@H]2O [Taxol] | 21.5
31 | NCCc1ccc(S(=O)(=O)F)cc1 [AEBSF] | 50.3
32 | CNC(=O)c1ccc2cc([C@@]3(O)CCn4cncc43)ccc2c1 [TAK_700] | -25.3
33 | O=c1oc2ccccc2c(O)c1Cc1c(O)c2ccccc2oc1=O [Dicoumarol] | -17.7
34 | OC[C@H]1O[C@@H](n2cnc3c2N=CNC[C@H]3O)C[C@@H]1O [Pentostatin] | -17.8
35 | S=c1nc[nH]c2nc[nH]c12 [6_Mercaptopurine] | -28.9
36 | CCC(C)SSc1ncc[nH]1 (stereo unspecified) [PX_12] | -1.42
37 | CCCCC/C=C/C(=O)CCc1ccc(O)c(OC)c1 [Shogaol] | -6.33
38 | Cc1cc(C)nc(NC(=S)N2CCN(Cc3ccc(C(F)(F)F)cc3)CC2)c1 [NCT-503] | -9.82
39 | Cc1ccccc1C(C(=O)NC1CCCC1)N(C(=O)Cn1cnc2ccccc21)c1cccc(F)c1 (stereo unspecified) [ML309] | 94.6
40 | CC(C)=CCC1=C(O)C(=O)c2ccccc2C1=O [Lapachol] | 57.7
41 | CN(C)C(=N)NC(=N)N [Metformin] | -36.3
42 | Cc1ccc([C@@H]2O[C@H](CO)[C@@H](O)[C@H](O)[C@H]2O)cc1Cc1ccc(-c2ccc(F)cc2)s1 [Canagliflozin] | 108

Row | Structure (SMILES) | rescue of cell number [%]
43 | CC(c1cc2ccccc2s1)N(O)C(N)=O (stereo unspecified) [Zileuton] | -16.9
44 | CCN(CC)Cc1ccc(C(=O)N(CCc2ccccc2OC)[C@@H]2CCNC2)cc1 | 63.9
45 | CC1=CC(=O)c2c(O)cccc2C1=O [Plumbagin] | 34.3
46 | Oc1ccc(/C=C/c2cc(O)cc(O)c2)cc1 [Resveratrol] | -35.9
47 | Cc1cc(/C=C/c2ccc3cc(N(C)C)ccc3[n+]2C)c(C)n1-c1ccccc1 [Pyrvinium_pamoate] | 5.84
48 | Cc1ccc(-c2cc(C(F)(F)F)nn2-c2ccc(S(N)(=O)=O)cc2)cc1 [Celecoxib] | 68.1
49 | COC(=O)/C=C/C(=O)OC [Dimethyl fumarate] | 67.2
50 | N#Cc1cn([C@@H]2O[C@H](CO)[C@@H](O)[C@H]2O)c2ncnc(N)c12 [Toyocamycin] | 9.71
51 | CC(=O)OC[C@H]1O[C@@H]([S-])[C@H](OC(C)=O)[C@@H](OC(C)=O)[C@@H]1OC(C)=O.CCP(CC)CC.[Au+] [Auranofin] | -0.594
52 | [N-]=[N+]=[N-] [Sodium_Azide] | -38.1
53 | O=[N+]([O-])c1ccc(O)c([N+](=O)[O-])c1 [2_4_Dinitrophenol] | 16.9
54 | N#CC(CCCN1CCN(/N=C/c2cccnc2)CC1)(c1ccccc1)c1ccccc1 | 99.9
55 | CC(=O)c1c(O)c(C)c(O)c(Cc2c(O)c3c(c(C(=O)/C=C/c4ccccc4)c2O)OC(C)(C)C=C3)c1O [Rottlerin] | 24.6
56 | CNCCC(Oc1ccc(C(F)(F)F)cc1)c1ccccc1 (stereo unspecified) [Fluoxetine] | 47
57 | CCOc1ccc(Cc2cc([C@@H]3O[C@H](CO)[C@@H](O)[C@H](O)[C@H]3O)ccc2Cl)cc1 [Dapagliflozin] | -33.4
58 | COc1c(O)cc2oc(-c3ccc(O)cc3)cc(=O)c2c1O [Hispidulin] | 145
59 | COc1c(C)c2c(c(O)c1C/C=C(\C)CCC(=O)O)C(=O)OC2 [Mycophenolic_Acid] | 51.6
60 | O=C(/C=C/c1ccc(O)c(O)c1)O[C@@H]1C[C@](O)(C(=O)O)C[C@@H](O)[C@H]1O [Chlorogenic_acid] | 95
61 | S=C=NCCc1ccccc1 [PEITC] | 37.8
62 | O=C(Nc1ccccc1)Nc1ccc(-c2ccc(C(=O)[C@@H]3CCC[C@H]3C(=O)O)cc2)cc1 | -36.5
63 | CNc1ccc(C(=O)Oc2cc(O/N=[N+](\[O-])N(C)C)c([N+](=O)[O-])cc2[N+](=O)[O-])cc1 [PABA_NO] | -16.1

Row | Structure (SMILES) | rescue of cell number [%]
64 | CCCCCC[C@H]1C(=O)O[C@H](C)[C@H](NC(=O)c2cccc(NC=O)c2O)C(=O)O[C@@H](C)[C@@H]1OC(=O)CC(C)C [Antimycin_A] | -7.1
65 | Nc1nc(=S)c2[nH]cnc2[nH]1 [6_Thioguanine] | 42.9
66 | CC(C)(O)CNc1nc(Nc2ccnc(C(F)(F)F)c2)nc(-c2cccc(C(F)(F)F)n2)n1 [AG-221] | 26.9
67 | OC(c1cc(C(F)(F)F)nc2c(C(F)(F)F)cccc12)C1CCCCN1 (stereo unspecified) [Mefloquine] | -12
68 | CCN[C@H]1C[C@H](C)S(=O)(=O)c2sc(S(N)(=O)=O)cc21 [Dorzolamide] | 104
69 | O=C(Oc1ccc([N+](=O)[O-])cc1)N1CCC(C(O)(c2ccc3c(c2)OCO3)c2ccc3c(c2)OCO3)CC1 [JZL184] | 136
70 | O=C(Cc1cccc(OC(F)(F)F)c1)Nc1ccc(CCCCc2nnc(NC(=O)Cc3ccccn3)s2)nn1 [CB-839] | 38.5
71 | O=C(C1CC1)N1CC[C@@H](Cc2n[nH]c(=O)n2-c2ccc(-c3ccc4occc4c3)cc2)C1 | 117
72 | c1ccc2c(c1)[I+]c1ccccc1-2 [Diphenyleneiodonium_chloride] | 22.9
73 | CC1=C(CC(=O)O)c2cc(F)ccc2/C1=C\c1ccc([S+](C)[O-])cc1 (stereo unspecified) [Sulindac] | -22.1
74 | C[N+](C)(C)CCO.C[N+](C)(C)CCO.[SH-].[SH-].[S]=[Mo]=[S] [ATN-224] | -20.1
75 | O=C1N[C@@H]2[C@@H](O)[C@@H](O)[C@H](O)[C@@H](CO)N2C1=O [Kifunensine] | 123
76 | COC(=O)c1ccc([C@H]2c3[nH]c4ccccc4c3C[C@H](C(=O)OC)N2C(=O)CCl)cc1 [1S,3R-RSL3] | 35.2
77 | Cc1cc(=O)oc2c(C=O)c(O)ccc12 [4mu8C] | 23.6
78 | OC[C@H]1O[C@@H](c2ccc(Cl)c(Cc3ccc(O[C@H]4CCOC4)cc3)c2)[C@H](O)[C@@H](O)[C@@H]1O [Empagliflozin] | 86.7
79 | CC(=O)NC[C@H]1CN(c2ccc(N3CCOCC3)c(F)c2)C(=O)O1 [Linezolid] | -6.21
80 | CC(C)c1cc(C(C)C)c(CC(=O)NS(=O)(=O)Oc2c(C(C)C)cccc2C(C)C)c(C(C)C)c1 [Avasimibe] | 7.22
81 | CCCCCCCCc1ccc(CCC(N)(CO)CO)cc1 [Fingolimod] | -1.64
